According to the NIST ThermoML archive (doi:10.1021/je050031f):

How the values were obtained:
[1] = xn = mol fraction of the nth substance listed; settings: 100.8 kPa, Liquid
[2] = refractive index (Na D-line) (dimensionless); xn = mol fraction of the nth substance listed; settings: 100.8 kPa, Liquid, Standard Abbe refractometry

CC1CCCCC1 [methylcyclohexane] + CCO
Settings | mass density, 288.15 K [kg/m3] | mass density, 298.15 K [kg/m3] | mass density, 308.15 K [kg/m3] | refractive index, 288.15 K | refractive index, 298.15 K | refractive index, 308.15 K | viscosity, 288.15 K [mPa·s] | viscosity, 298.15 K [mPa·s] | viscosity, 308.15 K [mPa·s]
[1], x2 = 0 | 773.4 | 765 | 756.3 | – | – | – | 0.784 | 0.685 | 0.6
[1], x2 = 0.05 | 773.4 | 764.6 | 755.8 | – | – | – | 0.771 | 0.674 | 0.589
[1], x2 = 0.1 | 773.4 | 764.7 | 755.7 | – | – | – | 0.769 | 0.67 | 0.588
[1], x2 = 0.15 | 773.7 | 764.8 | 755.8 | – | – | – | 0.77 | 0.667 | 0.585
[1], x2 = 0.2 | 774 | 765.1 | 756.1 | – | – | – | 0.779 | 0.673 | 0.588
[1], x2 = 0.25 | 774.3 | 765.4 | 756.4 | – | – | – | 0.793 | 0.681 | 0.593
[1], x2 = 0.3 | 774.7 | 765.8 | 756.8 | – | – | – | 0.811 | 0.694 | 0.602
[1], x2 = 0.35 | 775.1 | 766.2 | 757.2 | – | – | – | 0.831 | 0.707 | 0.612
[1], x2 = 0.4 | 775.7 | 766.8 | 757.8 | – | – | – | 0.853 | 0.722 | 0.623
[1], x2 = 0.45 | 776.3 | 767.4 | 758.4 | – | – | – | 0.877 | 0.739 | 0.635
[1], x2 = 0.5 | 777 | 768.1 | 759.1 | – | – | – | 0.902 | 0.757 | 0.65
[1], x2 = 0.55 | 777.8 | 768.9 | 759.9 | – | – | – | 0.928 | 0.778 | 0.666
[1], x2 = 0.6 | 778.7 | 769.8 | 760.8 | – | – | – | 0.955 | 0.799 | 0.683
[1], x2 = 0.65 | 779.6 | 770.8 | 761.8 | – | – | – | 0.983 | 0.82 | 0.7
[1], x2 = 0.7 | 780.8 | 772 | 763.1 | – | – | – | 1.012 | 0.843 | 0.72
[1], x2 = 0.75 | 782.1 | 773.4 | 764.5 | – | – | – | 1.043 | 0.867 | 0.74
[1], x2 = 0.8 | 783.6 | 774.9 | 766 | – | – | – | 1.077 | 0.894 | 0.762
[1], x2 = 0.85 | 785.4 | 776.7 | 767.9 | – | – | – | 1.114 | 0.926 | 0.79
[1], x2 = 0.9 | 787.7 | 779 | 770.2 | – | – | – | 1.164 | 0.971 | 0.828
[1], x2 = 0.95 | 790.4 | 781.8 | 773 | – | – | – | 1.225 | 1.021 | 0.867
[2], x2 = 0 | – | – | – | 1.42578 | 1.42053 | 1.41537 | – | – | –
[2], x2 = 0.05 | – | – | – | 1.42405 | 1.41871 | 1.41358 | – | – | –
[2], x2 = 0.1 | – | – | – | 1.42223 | 1.4169 | 1.41176 | – | – | –
[2], x2 = 0.15 | – | – | – | 1.42037 | 1.41505 | 1.40993 | – | – | –
[2], x2 = 0.2 | – | – | – | 1.41843 | 1.41313 | 1.40802 | – | – | –
[2], x2 = 0.25 | – | – | – | 1.41639 | 1.41112 | 1.40603 | – | – | –
[2], x2 = 0.3 | – | – | – | 1.41426 | 1.40902 | 1.40396 | – | – | –
[2], x2 = 0.35 | – | – | – | 1.41199 | 1.40679 | 1.40175 | – | – | –
[2], x2 = 0.4 | – | – | – | 1.4096 | 1.40442 | 1.39942 | – | – | –
[2], x2 = 0.45 | – | – | – | 1.40706 | 1.40192 | 1.39695 | – | – | –
[2], x2 = 0.5 | – | – | – | 1.40437 | 1.39927 | 1.39433 | – | – | –
[2], x2 = 0.55 | – | – | – | 1.4015 | 1.39644 | 1.39153 | – | – | –
[2], x2 = 0.6 | – | – | – | 1.39844 | 1.39343 | 1.38856 | – | – | –
[2], x2 = 0.65 | – | – | – | 1.39516 | 1.3902 | 1.38538 | – | – | –
[2], x2 = 0.7 | – | – | – | 1.39166 | 1.38674 | 1.38197 | – | – | –
[2], x2 = 0.75 | – | – | – | 1.38785 | 1.38298 | 1.37827 | – | – | –
[2], x2 = 0.8 | – | – | – | 1.38377 | 1.37896 | 1.37432 | – | – | –
[2], x2 = 0.85 | – | – | – | 1.37933 | 1.37459 | 1.37001 | – | – | –
[2], x2 = 0.9 | – | – | – | 1.37449 | 1.36985 | 1.36536 | – | – | –
[2], x2 = 0.95 | – | – | – | 1.36921 | 1.36474 | 1.36042 | – | – | –
